# Laboratory results taken from publication PMC3973950, “Synthesis of 5-arylidine amino-1,3,4-thiadiazol-2-[(N-substituted benzyol)]sulphonamides endowed with potent antioxidants and anticancer activity induces growth inhibition in HEK293, BT474 and NCI-H226 cells” (Medicinal Chemistry Research, 2013).
# Tested on: BT474 (breast cancer cell line)
# Assay: In vitro cytotoxicity by MTT assay, BT474
# Assay type: cell-based
# Conditions: Homo sapiens, BT-474, 1.23 μM, 72 h, read-out: % cytotoxicity (100 − % cell survival) of BT474 cell line
# Outline: (§1)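 After 72 h of compound exposure at 37 °C in 5 % CO2, MTT was added for 4 h and the propanol-solubilised formazan was read at 490 nm. Monolayers (~10,000 cells/well, RPMI-1640 plus 10 % newborn calf serum) had been allowed to form for 24 h beforehand.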
row,Structure (SMILES),cytotoxicity at 1.23 µM
1,CC(=O)Nc1ccc(S(=O)(=O)Nc2nnc(S(=O)(=O)NC(=O)c3ccc([N+](=O)[O-])cc3)s2)cc1 [Compound 6e],30.1%

# Same assay, conditions: Homo sapiens, BT-474, 3.7 μM, 72 h, read-out: % cytotoxicity (100 − % cell survival) of BT474 cell line
row,Structure (SMILES),cytotoxicity at 3.7 µM
1,CC(=O)Nc1ccc(S(=O)(=O)Nc2nnc(S(=O)(=O)NC(=O)c3ccc([N+](=O)[O-])cc3)s2)cc1 [Compound 6e],31.1%

# Same assay, conditions: Homo sapiens, BT-474, 11.11 μM, 72 h, read-out: % cytotoxicity (100 − % cell survival) of BT474 cell line
row,Structure (SMILES),cytotoxicity at 11.11 µM
1,CC(=O)Nc1ccc(S(=O)(=O)Nc2nnc(S(=O)(=O)NC(=O)c3ccc([N+](=O)[O-])cc3)s2)cc1 [Compound 6e],32.5%

# Same assay, conditions: Homo sapiens, BT-474, 33.33 μM, 72 h, read-out: % cytotoxicity (100 − % cell survival) of BT474 cell line
row,Structure (SMILES),cytotoxicity at 33.33 µM
1,CC(=O)Nc1ccc(S(=O)(=O)Nc2nnc(S(=O)(=O)NC(=O)c3ccc([N+](=O)[O-])cc3)s2)cc1 [Compound 6e],34.8%

# Same assay, conditions: Homo sapiens, BT-474, 100 μM, 72 h, read-out: % cytotoxicity (100 − % cell survival) of BT474 cell line
row,Structure (SMILES),cytotoxicity at 100 µM
1,CC(=O)Nc1ccc(S(=O)(=O)Nc2nnc(S(=O)(=O)NC(=O)c3ccc([N+](=O)[O-])cc3)s2)cc1 [Compound 6e],37.3%

# Tested on: HEK 293, M468 and NCI-H226
# Assay: In vitro cytotoxicity by MTT assay, summary over all cell lines
# Assay type: cell-based
# Conditions: on all cell lines
# Experimental: The cancer cell line cultures of HEK 293 ([…]), BT474 (breast cancer cell line) and NCI-H226 (lung cancer) were obtained from Pasteur Institute of India, Coonoor, India, and were cultured in RPMI-1640 and 10 % heat-[…] New born calf serum with antibiotics [penicillin ([…]), streptomycin (100 μg/mL) and amphotericin B (25 μg/mL)]. The cells were maintained at 37 °C in a humidified atmosphere with 5 % CO2 and were subcultured twice a week.
# The monolayer cell culture (100 μL) was trypsinized, and the cell count was adjusted to […] using medium containing 10 % new born calf serum. To each well of the 96-well microtitre plate, the diluted cell suspension (approximately 10,000 cells) (0.1 mL) was added and kept for 24 h in incubator at 37 °C in 5 % CO2 atmosphere for cell monolayer formation. After 24 h, when a partial monolayer was formed at the bottom of the well, the supernatant was flicked off, the monolayer was washed once, and different drugs, i.e. synthesized compounds (100 μL), were added to the cells in microtitre plates. The plates were then incubated at 37 °C for 3 days in 5 % CO2 atmosphere, and microscopic examination was carried out and observations recorded every 24 h. After 72 h, the sample solution in the wells was flicked off; MTT dye ([…]) was added to each well; plates were gently shaken and incubated for 4 h at 37 °C in 5 % CO2 incubator. The supernatant was removed and propanol (50 μL) was added; the plates were gently shaken to solubilize the formed formazan. The absorbance was measured using a microplate reader at a wavelength of 490 nm (Edmondson et al., [1988]; Prasad et al., [2005]; Chiruvella et al., [2008]; Chang et al., [2007]).
row,Structure (SMILES),cytotoxic activity compared with all synthesized compounds
1,CC(=O)Nc1ccc(S(=O)(=O)Nc2nnc(S(=O)(=O)NC(=O)c3ccc([N+](=O)[O-])cc3)s2)cc1 [Compound 6e],moderate activity

# Tested on: NCI-H226 (lung cancer cell line)
# Assay: In vitro cytotoxicity by MTT assay, NCI-H226
# Assay type: cell-based
# Conditions: Homo sapiens, NCI-H226, 0.005 μM, 72 h, read-out: % Cytotoxicity (100 − % cell survival) of NCI-H226 cell line
# Outline: as §1
row,Structure (SMILES),cytotoxicity at 0.005 µM
1,CC(=O)Nc1ccc(S(=O)(=O)Nc2nnc(S(=O)(=O)NC(=O)c3ccc([N+](=O)[O-])cc3)s2)cc1 [Compound 6e],38.8%

# Same assay, conditions: Homo sapiens, NCI-H226, 0.045 μM, 72 h, read-out: % Cytotoxicity (100 − % cell survival) of NCI-H226 cell line
row,Structure (SMILES),cytotoxicity at 0.045 µM
1,CC(=O)Nc1ccc(S(=O)(=O)Nc2nnc(S(=O)(=O)NC(=O)c3ccc([N+](=O)[O-])cc3)s2)cc1 [Compound 6e],42.4%

# Same assay, conditions: Homo sapiens, NCI-H226, 0.13 μM, 72 h, read-out: % Cytotoxicity (100 − % cell survival) of NCI-H226 cell line
row,Structure (SMILES),cytotoxicity at 0.13 µM
1,CC(=O)Nc1ccc(S(=O)(=O)Nc2nnc(S(=O)(=O)NC(=O)c3ccc([N+](=O)[O-])cc3)s2)cc1 [Compound 6e],45.4%

# Same assay, conditions: Homo sapiens, NCI-H226, 0.41 μM, 72 h, read-out: % Cytotoxicity (100 − % cell survival) of NCI-H226 cell line
row,Structure (SMILES),cytotoxicity at 0.41 µM
1,CC(=O)Nc1ccc(S(=O)(=O)Nc2nnc(S(=O)(=O)NC(=O)c3ccc([N+](=O)[O-])cc3)s2)cc1 [Compound 6e],47.6%

# Same assay, conditions: Homo sapiens, NCI-H226, 1.23 μM, 72 h, read-out: % Cytotoxicity (100 − % cell survival) of NCI-H226 cell line
row,Structure (SMILES),cytotoxicity at 1.23 µM
1,CC(=O)Nc1ccc(S(=O)(=O)Nc2nnc(S(=O)(=O)NC(=O)c3ccc([N+](=O)[O-])cc3)s2)cc1 [Compound 6e],48.6%

# Same assay, conditions: Homo sapiens, NCI-H226, 3.7 μM, 72 h, read-out: % Cytotoxicity (100 − % cell survival) of NCI-H226 cell line
row,Structure (SMILES),cytotoxicity at 3.7 µM
1,CC(=O)Nc1ccc(S(=O)(=O)Nc2nnc(S(=O)(=O)NC(=O)c3ccc([N+](=O)[O-])cc3)s2)cc1 [Compound 6e],49.2%

# Same assay, conditions: Homo sapiens, NCI-H226, 11.11 μM, 72 h, read-out: % Cytotoxicity (100 − % cell survival) of NCI-H226 cell line
row,Structure (SMILES),cytotoxicity at 11.11 µM
1,CC(=O)Nc1ccc(S(=O)(=O)Nc2nnc(S(=O)(=O)NC(=O)c3ccc([N+](=O)[O-])cc3)s2)cc1 [Compound 6e],50.8%

# Same assay, conditions: Homo sapiens, NCI-H226, 33.33 μM, 72 h, read-out: % Cytotoxicity (100 − % cell survival) of NCI-H226 cell line
row,Structure (SMILES),cytotoxicity at 33.33 µM
1,CC(=O)Nc1ccc(S(=O)(=O)Nc2nnc(S(=O)(=O)NC(=O)c3ccc([N+](=O)[O-])cc3)s2)cc1 [Compound 6e],51.1%

# Same assay, conditions: Homo sapiens, NCI-H226, 100 μM, 72 h, read-out: % Cytotoxicity (100 − % cell survival) of NCI-H226 cell line
row,Structure (SMILES),cytotoxicity at 100 µM
1,CC(=O)Nc1ccc(S(=O)(=O)Nc2nnc(S(=O)(=O)NC(=O)c3ccc([N+](=O)[O-])cc3)s2)cc1 [Compound 6e],54.5%

# Tested on: not listed separately
# Assay: In vitro cytotoxicity by MTT assay, NCI-H226
# Assay type: cell-based
# Conditions: human, NCI-H226 lung cancer cells, 0.015 μM, read-out: % Cytotoxicity (100 − % cell survival) of NCI-H226 cell line
# Outline: as §1
row,Structure (SMILES),"cytotoxicity at 72 h, 0.015 µM"
1,CC(=O)Nc1ccc(S(=O)(=O)Nc2nnc(S(=O)(=O)NC(=O)c3ccc([N+](=O)[O-])cc3)s2)cc1 [Compound 6e],41.2%
